Data on one substance can be found in patent publication US8852629B2, “Drug delivery system for hydrophobic drugs” (Valeant Pharmaceuticals International, Inc., priority 2001, dated 2014).

Data set [1] is described as follows: lability in an aqueous environment. The class given is physicochemical. The following applies: must be lyophilized for storage. From the text:
It has been a challenge to find suitable pharmaceutical formulations for hydrophobic polypyrrolic macrocyle based photosensitizers that can be filter sterilized and freeze dried, and can also be rapidly reconstituted in an aqueous medium prior to administration, while retaining a small particle size after rehydration. Photosensitive compounds such as verteporfin (BPD-MA) and QLT 0074 (EA6) must be lyophilized for storage, because they are labile in an aqueous environment.

Data set [2] in a line: storage stability (potency) of cryodesiccated MA composition. The class given is physicochemical. The following applies: room temperature. From the text: Once formulated, the MA of the invention may be freeze-dried for long-term storage if desired. […] If the composition is freeze-dried, it may be packed in vials for subsequent reconstitution with a suitable aqueous solution, such as sterile water or sterile water containing a saccharide and/or other suitable excipients, just prior to use. For example, reconstitution may be by simply adding water for injection just prior to administration.

Turning to “benzoporphyrin derivative monoacid ring A [BPD-MA]”, the “stability in an aqueous environment” value in data set [1] is recorded as “labile”. In addition, in data set [2], the “period over which potency was maintained” value is on record as “at least nine”.
